From patent US20250154109A1, “SODIUM CHANNEL BLOCKING COMPOUNDS, DERIVATIVES THEREOF, AND METHODS OF THEIR USE” (LATIGO BIOTHERAPEUTICS, INC, priority 2022, published 2025) come the findings set out here.

By IC50 is commonly meant the point on the concentration scale where inhibition reaches its midpoint.

This experiment concerns the target human Nav1.8 (Homo sapiens, UniProt Q9Y5Y9). The experiment can be described thus: SyncroPatch384PE assay (automated patch clamp). In kind it is cell-based. The note with it: human Nav1.8/b3 CHO cells.
The mark [1] stands for this setting: inactivated state block (P2 measurement), read-out: P2 IC50.
The mark [2] stands for this setting: resting state block (P1 measurement), read-out: P1 IC50.

Counter-ions that a name gives are not always drawn. Like-named read-outs stand apart in the source and are kept apart here.

Chain of human Nav1.8 (Q9Y5Y9 whole entry): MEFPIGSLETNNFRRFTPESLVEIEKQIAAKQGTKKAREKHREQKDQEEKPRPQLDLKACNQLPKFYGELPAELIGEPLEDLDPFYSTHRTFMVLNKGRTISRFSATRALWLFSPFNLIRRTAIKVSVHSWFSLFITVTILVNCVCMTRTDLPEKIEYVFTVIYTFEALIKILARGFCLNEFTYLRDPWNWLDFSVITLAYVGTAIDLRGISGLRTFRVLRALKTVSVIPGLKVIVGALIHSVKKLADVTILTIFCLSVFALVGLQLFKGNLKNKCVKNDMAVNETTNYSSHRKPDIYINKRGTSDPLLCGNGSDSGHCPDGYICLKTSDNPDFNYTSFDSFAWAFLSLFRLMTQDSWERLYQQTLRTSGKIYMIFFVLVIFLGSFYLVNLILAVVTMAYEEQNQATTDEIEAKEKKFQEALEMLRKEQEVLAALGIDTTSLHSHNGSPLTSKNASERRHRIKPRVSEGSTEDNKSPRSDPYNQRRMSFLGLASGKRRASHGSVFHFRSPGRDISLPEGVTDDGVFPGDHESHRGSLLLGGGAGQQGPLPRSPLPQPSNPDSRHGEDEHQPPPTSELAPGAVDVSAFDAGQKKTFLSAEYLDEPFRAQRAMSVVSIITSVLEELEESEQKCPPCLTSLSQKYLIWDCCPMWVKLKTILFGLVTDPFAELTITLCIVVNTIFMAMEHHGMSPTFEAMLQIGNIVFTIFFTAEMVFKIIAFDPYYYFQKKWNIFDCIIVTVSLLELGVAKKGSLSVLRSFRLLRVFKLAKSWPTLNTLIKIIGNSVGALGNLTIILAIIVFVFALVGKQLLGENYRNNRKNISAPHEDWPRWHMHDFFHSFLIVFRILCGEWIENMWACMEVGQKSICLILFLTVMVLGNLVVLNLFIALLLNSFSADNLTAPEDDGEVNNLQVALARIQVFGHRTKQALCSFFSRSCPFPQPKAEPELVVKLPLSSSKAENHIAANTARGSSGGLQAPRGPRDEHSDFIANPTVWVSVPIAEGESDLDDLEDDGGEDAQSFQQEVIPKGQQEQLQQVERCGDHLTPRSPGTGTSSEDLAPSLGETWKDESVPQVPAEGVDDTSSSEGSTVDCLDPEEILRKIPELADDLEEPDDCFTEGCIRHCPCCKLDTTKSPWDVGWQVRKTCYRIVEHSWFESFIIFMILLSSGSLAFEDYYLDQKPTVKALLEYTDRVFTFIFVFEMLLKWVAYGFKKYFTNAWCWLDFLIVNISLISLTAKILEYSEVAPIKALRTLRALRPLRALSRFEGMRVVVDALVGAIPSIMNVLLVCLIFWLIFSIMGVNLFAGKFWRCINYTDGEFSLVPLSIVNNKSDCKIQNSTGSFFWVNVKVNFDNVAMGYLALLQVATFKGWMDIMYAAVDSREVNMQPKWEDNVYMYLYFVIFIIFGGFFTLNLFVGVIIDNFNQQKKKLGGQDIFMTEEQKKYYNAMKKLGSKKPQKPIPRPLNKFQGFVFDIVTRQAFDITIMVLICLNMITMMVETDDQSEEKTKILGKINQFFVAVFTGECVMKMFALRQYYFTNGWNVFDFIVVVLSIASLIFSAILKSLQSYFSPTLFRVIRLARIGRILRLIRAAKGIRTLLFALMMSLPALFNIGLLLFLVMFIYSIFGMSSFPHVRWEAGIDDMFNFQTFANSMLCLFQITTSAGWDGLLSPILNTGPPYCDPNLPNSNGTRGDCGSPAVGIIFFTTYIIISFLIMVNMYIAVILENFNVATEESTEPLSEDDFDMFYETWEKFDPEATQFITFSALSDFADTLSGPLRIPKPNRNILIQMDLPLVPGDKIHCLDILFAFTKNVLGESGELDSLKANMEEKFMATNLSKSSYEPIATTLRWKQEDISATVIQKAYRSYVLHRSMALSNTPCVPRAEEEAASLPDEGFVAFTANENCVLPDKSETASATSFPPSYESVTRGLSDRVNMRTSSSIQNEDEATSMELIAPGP

As to `C[S@@](=N)(=O)c1cccc(NC(=O)c2cc(C(F)(F)F)nnc2N2CCCC(F)(F)CC2)c1` [Example 18, (R)-3-(4,4-difluoroazepan-1-yl)-N-(3-(S-methylsulfonimidoyl)phenyl)-6-(trifluoromethyl)pyridazine-4-carboxamide], the IC50 runs as follows: under setting [1], 100 to 200 nM; under setting [2], above 200 nM.
Take `Cc1ccnc(N2CCCC(F)(F)CC2)c1C(=O)Nc1cccc(S(C)(=N)=O)c1` (stereo not shown) [Example 105, 2-(4,4-difluoroazepan-1-yl)-4-methyl-N-(3-(S-methylsulfonimidoyl)phenyl)nicotinamide]: the IC50 is, setting by setting: under setting [1], 50 to 100 nM; under setting [2], 50 to 100 nM.
On to `C[S@@](=N)(=O)c1cccc(NC(=O)c2cc(Cl)c(C(F)(F)F)cc2N2CCO[C@@H](C(F)(F)F)C2)c1` [Example 216, 5-chloro-N-(3-((R)—S-methylsulfonimidoyl)phenyl)-4-(trifluoromethyl)-2-((R)-2-(trifluoromethyl)morpholino)benzamide], for which the IC50 reads like this: under setting [1], 50 to 100 nM; under setting [2], 50 to 100 nM.
`Cc1c(F)cnc(N2CCCC(F)(F)CC2)c1C(=O)Nc1cccc([S@](C)(=N)=O)c1` [Example 168, (R)-2-(4,4-difluoroazepan-1-yl)-5-fluoro-4-methyl-N-(3-(S-methylsulfonimidoyl)phenyl)nicotinamide]: the concentration for half-maximal inhibition (IC50) is, setting by setting: under setting [1], 5 to 50 nM; under setting [2], 5 to 50 nM.
Regarding `Cc1c(C(=O)Nc2cccc([S@](C)(=N)=O)c2)c(N2CCCC(F)(F)CC2)nc(C(F)(F)F)c1-c1cnn(C)c1` [Example 133, (R)-2-(4,4-difluoroazepan-1-yl)-4-methyl-5-(1-methyl-1H-pyrazol-4-yl)-N-(3-(S-methylsulfonimidoyl)phenyl)-6-(trifluoromethyl)nicotinamide], the IC50 was at most 5 nM under setting [1] and at most 5 nM under setting [2].
Consider `CS(=N)(=O)c1cccc(NC(=O)c2nnc(C(F)(F)F)cc2N2CCCC(F)(F)CC2)c1` (stereo not shown) [Example 21, 4-(4,4-difluoroazepan-1-yl)-N-(3-(S-methylsulfonimidoyl)phenyl)-6-(trifluoromethyl)pyridazine-3-carboxamide], for which the 50% inhibitory concentration (IC50) was above 200 nM under setting [1] and above 200 nM under setting [2].
As for `Cc1noc(C)c1-c1cnc(N2CCCC(F)(F)CC2)c(C(=O)Nc2cccc([S@](C)(=N)=O)c2)c1C` [Example 156, (R)-2-(4,4-difluoroazepan-1-yl)-5-(3,5-dimethylisoxazol-4-yl)-4-methyl-N-(3-(S-methylsulfonimidoyl)phenyl)nicotinamide], the half-maximal inhibitory concentration (IC50) is above 200 nM under setting [1] and above 200 nM under setting [2].
As to `Cc1c(-c2ccccc2F)cnc(N2CCCC(F)(F)CC2)c1C(=O)Nc1cccc(S(C)(=N)=O)c1` (stereo not shown) [Example 92, 2-(4,4-difluoroazepan-1-yl)-5-(2-fluorophenyl)-4-methyl-N-(3-(S-methylsulfonimidoyl)phenyl)nicotinamide], the half-maximal inhibitory concentration (IC50) runs as follows: under setting [1], at most 5 nM; under setting [2], at most 5 nM.
For the compound `Cc1c(-c2cnn(C)c2)cnc(N2CCCC(F)(F)CC2)c1C(=O)Nc1cccc([S@@](C)(=O)=NC(=O)CN)c1` [Example 74, (R)-2-(4,4-difluoroazepan-1-yl)-N-(3-(N-glycyl-S-methylsulfonimidoyl)phenyl)-4-methyl-5-(1-methyl-1H-pyrazol-4-yl)nicotinamide], the IC50 by setting is: under setting [1], 5 to 50 nM; under setting [2], 5 to 50 nM.
For the compound `Cc1nc(N2CCCC(F)(F)CC2)c(C(=O)Nc2cccc(S(C)(=N)=O)c2)c(C)c1Cl` (stereo not shown) [Example 106, 5-chloro-2-(4,4-difluoroazepan-1-yl)-4,6-dimethyl-N-(3-(S-methylsulfonimidoyl)phenyl)nicotinamide], the half-maximal inhibitory concentration (IC50) reads like this: under setting [1], at most 5 nM; under setting [2], at most 5 nM.
Turning to `Cc1nc(N2CCC3(CC2)CC3)c(C(=O)Nc2cccc(S(C)(=N)=O)c2)cc1C(F)(F)F` (stereo not shown) [Example 25, 6-Methyl-N-(3-(S-methylsulfonimidoyl)phenyl)-2-(6-azaspiro[2.5]octan-6-yl)-5-(trifluoromethyl)nicotinamide], the half-maximal inhibitory concentration (IC50) is, setting by setting: under setting [1], at most 5 nM; under setting [2], at most 5 nM.
Turning to `CNCC(=O)N=[S@](C)(=O)c1cccc(NC(=O)c2c(N3CCCC(F)(F)CC3)ncc(-c3ccc4c(c3)OCCO4)c2C)c1` [Example 48, (R)-2-(4,4-difluoroazepan-1-yl)-5-(2,3-dihydrobenzo[b][1,4]dioxin-6-yl)-4-methyl-N-(3-(S-methyl-N-(methylglycyl)sulfonimidoyl)phenyl)nicotinamide], the IC50 is at most 5 nM under setting [1] and at most 5 nM under setting [2].
Consider `Cc1c(Cl)c(C(F)(F)F)nc(N2CCCC(F)(F)CC2)c1C(=O)Nc1cccc([S@@](C)(=N)=O)c1` [Example 108, (S)-5-chloro-2-(4,4-difluoroazepan-1-yl)-4-methyl-N-(3-(S-methylsulfonimidoyl)phenyl)-6-(trifluoromethyl)nicotinamide], for which the concentration for half-maximal inhibition (IC50) was at most 5 nM under setting [1] and at most 5 nM under setting [2].
Take `CNCC(=O)N=[S@](C)(=O)c1cccc(NC(=O)c2c(N3CCCC(F)(F)CC3)ccc(-c3cnn(C)c3)c2C)c1` [Example 175, (R)-6-(4,4-difluoroazepan-1-yl)-2-methyl-3-(1-methyl-1H-pyrazol-4-yl)-N-(3-(S-methyl-N-(methylglycyl)sulfonimidoyl)phenyl)benzamide]: the half-maximal inhibitory concentration (IC50) is 5 to 50 nM under setting [1] and 5 to 50 nM under setting [2].
In the case of `Cc1c(C#N)c(C(F)(F)F)nc(N2CCCC(F)(F)CC2)c1C(=O)Nc1cccc([S@](C)(=N)=O)c1` [Example 56, (R)-5-cyano-2-(4,4-difluoroazepan-1-yl)-4-methyl-N-(3-(S-methylsulfonimidoyl)phenyl)-6-(trifluoromethyl)nicotinamide], the IC50 by setting is: under setting [1], at most 5 nM; under setting [2], at most 5 nM.
As to `Cc1c(C(F)(F)F)nnc(N2CCCCCC2)c1C(=O)Nc1cccc([S@@](C)(=N)=O)c1` [Example 11, (S)-3-(azepan-1-yl)-5-methyl-N-(3-(S-methylsulfonimidoyl)phenyl)-6-(trifluoromethyl)pyridazine-4-carboxamide], the IC50 under setting [1] lay in the range of 100 to 200 nM and the IC50 under setting [2] was in the range of 100 to 200 nM.
For `Cc1nc(N2CCC3(CC2)CC3)c(C(=O)Nc2cccc(S(C)(=N)=O)c2)cc1Cl` (stereo not shown) [Example 12, 5-chloro-6-methyl-N-(3-(S-methylsulfonimidoyl)phenyl)-2-(6-azaspiro[2.5]octan-6-yl)nicotinamide], the IC50 under setting [1] is at most 5 nM and the IC50 under setting [2] is at most 5 nM.
Regarding `CNCC(=O)N=[S@](C)(=O)c1cccc(NC(=O)c2c(N3CCCC(F)(F)CC3)ncc(C(F)(F)F)c2C)c1` [Example 194, (R)-2-(4,4-difluoroazepan-1-yl)-4-methyl-N-(3-(S-methyl-N-(methylglycyl)sulfonimidoyl)phenyl)-5-(trifluoromethyl)nicotinamide], the IC50 was at most 5 nM under setting [1] and at most 5 nM under setting [2].
For `Cc1c(C(F)(F)F)nnc(N2CCCC(F)(F)CC2)c1C(=O)Nc1cccc([S@@](C)(=O)=NC(=O)CN2CC(F)(F)C2)c1` [Example 198, (R)-3-(4,4-difluoroazepan-1-yl)-N-(3-(N-(2-(3,3-difluoroazetidin-1-yl)acetyl)-S-methylsulfonimidoyl)phenyl)-5-methyl-6-(trifluoromethyl)pyridazine-4-carboxamide], the IC50 is at most 5 nM under setting [1] and at most 5 nM under setting [2].
For the compound `Cc1nc(-c2cnn(C)c2)nc(N2CCCC(F)(F)CC2)c1C(=O)Nc1cccc([S@](C)(=N)=O)c1` [Example 150, (R)-4-(4,4-difluoroazepan-1-yl)-6-methyl-2-(1-methyl-1H-pyrazol-4-yl)-N-(3-(S-methylsulfonimidoyl)phenyl)pyrimidine-5-carboxamide], the half-inhibitory concentration (IC50) reads like this: under setting [1], 100 to 200 nM; under setting [2], 100 to 200 nM.
Consider `Cc1c(-c2ccc(C#N)cc2)nnc(N2CCCC(F)(F)CC2)c1C(=O)Nc1cccc([S@](C)(=N)=O)c1` [Example 154, (R)-6-(4-cyanophenyl)-3-(4,4-difluoroazepan-1-yl)-5-methyl-N-(3-(S-methylsulfonimidoyl)phenyl)pyridazine-4-carboxamide], for which the half-maximal inhibitory concentration (IC50) was 50 to 100 nM under setting [1] and 50 to 100 nM under setting [2].
`Cc1c(-c2ccc(C(F)F)cc2)cnc(N2CCCC(F)(F)CC2)c1C(=O)Nc1cccc(S(C)(=N)=O)c1` (stereo not shown) [Example 87, 2-(4,4-difluoroazepan-1-yl)-5-(4-(difluoromethyl)phenyl)-4-methyl-N-(3-(S-methylsulfonimidoyl)phenyl)nicotinamide]: the IC50 by setting is: under setting [1], at most 5 nM; under setting [2], at most 5 nM.
As to `Cc1c(-c2cnn(C)c2)cnc(N2CCCC(F)(F)CC2)c1C(=O)Nc1cccc([S@@](C)(=O)=NC(=O)C2CNC2)c1` [Example 51, (R)-N-(3-(N-(azetidine-3-carbonyl)-S-methylsulfonimidoyl)phenyl)-2-(4,4-difluoroazepan-1-yl)-4-methyl-5-(1-methyl-1H-pyrazol-4-yl)nicotinamide formate], the 50% inhibitory concentration (IC50) by setting is: under setting [1], 5 to 50 nM; under setting [2], 5 to 50 nM.
On to `Cc1c(-c2cnn(C)c2)cnc(N2CCCC(F)(F)CC2)c1C(=O)Nc1cccc([S@@](C)(=O)=NC(=O)[C@H](C)N)c1` [Example 76, N-(3-((R)-N-(L-alanyl)-S-methylsulfonimidoyl)phenyl)-2-(4,4-difluoroazepan-1-yl)-4-methyl-5-(1-methyl-1H-pyrazol-4-yl)nicotinamide formate], for which the IC50 was at most 5 nM under setting [1] and at most 5 nM under setting [2].
Take `Cc1c(C(F)(F)F)cnc(N2CCCC(F)(F)CC2)c1C(=O)Nc1cccc([S@@](C)(=O)=NC(=O)C2(N)CCC2)c1` [Example 180, (R)-N-(3-(N-(1-aminocyclobutane-1-carbonyl)-S-methylsulfonimidoyl)phenyl)-2-(4,4-difluoroazepan-1-yl)-4-methyl-5-(trifluoromethyl)nicotinamide]: the 50% inhibitory concentration (IC50) is at most 5 nM under setting [1] and at most 5 nM under setting [2].
Regarding `CS(=N)(=O)c1cccc(NC(=O)c2nnc(C(F)(F)F)cc2N2CCCCCC2)c1` (stereo not shown) [Example 9, 4-(azepan-1-yl)-N-(3-(S-methylsulfonimidoyl)phenyl)-6-(trifluoromethyl)pyridazine-3-carboxamide], the IC50 reads like this: under setting [1], above 200 nM; under setting [2], above 200 nM.
